Reference: BindingDB's records for doi:10.7270/Q2ZC817P (The Scripps Research Institute Molecular Screening Center, 2007)
Where a name gives a salt, the structure may show the parent alone.

What follows are compounds tested against Sphingosine 1-phosphate receptor 1 (Homo sapiens, UniProt P21453) (assay: potentiators of S1P1 agonist response, dose response, cell-based, potentiator mode, 60K MLSMR set (AID 466)). Settings: not given.
Sequence of Sphingosine 1-phosphate receptor 1 (P21453 whole entry): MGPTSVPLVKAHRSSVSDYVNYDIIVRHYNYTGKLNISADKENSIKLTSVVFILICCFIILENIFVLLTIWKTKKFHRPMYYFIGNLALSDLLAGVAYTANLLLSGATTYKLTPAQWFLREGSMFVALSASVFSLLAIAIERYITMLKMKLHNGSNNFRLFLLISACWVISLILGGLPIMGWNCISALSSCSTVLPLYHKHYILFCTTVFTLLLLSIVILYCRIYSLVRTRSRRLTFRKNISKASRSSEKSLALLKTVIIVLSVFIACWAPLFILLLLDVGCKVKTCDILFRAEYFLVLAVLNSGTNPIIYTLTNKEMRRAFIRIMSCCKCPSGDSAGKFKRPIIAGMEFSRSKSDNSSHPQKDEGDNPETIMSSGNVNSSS

Row | Structure (SMILES) | EC50
1 | Cc1cc(C(=O)CSc2nnc(-c3cccs3)o2)c(C)n1-c1ccccc1 [1-(2,5-dimethyl-1-phenyl-3-pyrrolyl)-2-[(5-thiophen-2-yl-1,3,4-oxadiazol-2-yl)thio]ethanone] | 4.19 µM
2 | CC(C)(C)OC(=O)N[C@@H](Cc1ccccc1)c1nnc(S(=O)(=O)Cc2cccc(F)c2)o1 [tert-butyl N-[(1S)-1-[5-[(3-fluorophenyl)methylsulfonyl]-1,3,4-oxadiazol-2-yl]-2-phenylethyl]carbamate] | 9.88 µM
3 | CCC(NC(C)c1ccccc1)=C1C(=O)N(C)C(=O)N(C)C1=O (stereo not drawn) [SMR000043429] | 14.4 µM
4 | Cc1ccc(C(C)C)c(OCc2ccc(-c3nnco3)cc2)c1 [2-[4-[(2-isopropyl-5-methyl-phenoxy)methyl]phenyl]-1,3,4-oxadiazole] | 1.72 µM
5 | O=C(NCc1ccco1)C1CCN(C(=O)c2cc3sccc3n2Cc2ccc(Cl)cc2)CC1 [1-[4-(4-chlorobenzyl)thieno[3,2-b]pyrrole-5-carbonyl]-N-(2-furfuryl)isonipecotamide] | 9.88 µM
6 | COc1ccc(NC(=O)c2cc(-c3cccs3)on2)cc1OC [MLS000087261] | 5.28 µM
7 | N#Cc1nc(COc2ccc(Cl)cc2Cl)oc1N1CCN(c2ccccc2)CC1 [2-[(2,4-dichlorophenoxy)methyl]-5-(4-phenyl-1-piperazinyl)-4-oxazolecarbonitrile] | > 10 µM
8 | CCN(CC)C(=O)CS/C(=N/C#N)Nc1ccccc1F [2-[[N-cyano-N'-(2-fluorophenyl)amidino]thio]-N,N-diethyl-acetamide] | > 95 µM
9 | Oc1ccc(-c2nnc(SCC3CCCCC3)o2)cc1 [4-(5-Cyclohexylmethylsulfanyl-[1,3,4]oxadiazol-2-yl)-phenol] | 0.437 µM
10 | Clc1ccc(-n2nnnc2Sc2ncnc3sccc23)cc1 [SMR000066808] | 5.29 µM
11 | Fc1ccc2[nH]c3c(N4CCSCC4)ncnc3c2c1 [MLS000078401] | 6.28 µM
12 | O=C(Nc1ccc(Cl)cc1)N1CCC(c2nc(-c3ccc(F)cc3)no2)CC1 [4-[3-(4-Fluoro-phenyl)-[1,2,4]oxadiazol-5-yl]-piperidine-1-carboxylic acid (4-chloro-phenyl)-amide] | 5.9 µM
13 | Cc1ccc(-n2c(C)cc(C(=O)CSc3nnnn3C)c2C)cc1 [1-[2,5-dimethyl-1-(4-methylphenyl)-3-pyrrolyl]-2-[(1-methyl-5-tetrazolyl)thio]ethanone] | 6.1 µM
14 | Clc1ccccc1C1=Nn2c(nnc2-c2ccncc2)SC1 [6-(2-chlorophenyl)-3-(4-pyridyl)-7H-[1,2,4]triazolo[3,4-b][1,3,4]thiadiazine] | 5.66 µM
15 | Nc1ccc(N2CCCCCC2)cc1 [4-(1-azepanyl)aniline;hydrochloride] | > 30 µM
16 | Cc1sc2ncnc(Sc3nnnn3-c3ccccc3)c2c1C [5,6-dimethyl-4-(1-phenyltetrazol-5-yl)sulfanylthieno[2,3-d]pyrimidine] | > 95 µM
17 | O=C(Nc1ccc(N2CCCC2)c(Cl)c1)c1ccc(Br)o1 [5-bromanyl-N-(3-chloranyl-4-pyrrolidin-1-yl-phenyl)furan-2-carboxamide] | 3.76 µM
18 | Cc1nnc2ccc(Oc3ccc(-c4ccccc4)cc3)nn12 [3-methyl-6-(4-phenylphenoxy)-[1,2,4]triazolo[4,3-b]pyridazine] | 5.31 µM
19 | CC1=NC(=O)NC(c2ccc(F)cc2)C1C(=O)OCc1ccc2c(c1)OCO2 (stereo not drawn) [1,3-benzodioxol-5-ylmethyl 4-(4-fluorophenyl)-6-methyl-2-oxidanylidene-3,4-dihydro-1H-pyrimidine-5-carboxylate] | 0.631 µM
20 | CCc1ccc(S(=O)(=O)NCCc2csc(-c3ccccc3)n2)s1 [5-ethyl-N-[2-(2-phenyl-1,3-thiazol-4-yl)ethyl]thiophene-2-sulfonamide] | 8.24 µM
21 | CCN(C(=O)c1ccc(C(C)(C)C)cc1)c1nnc(Cn2nnc3ccccc32)s1 [MLS000072751] | 1.82 µM

Row | Structure (SMILES) | EC50
22 | CCCCOc1ncnc2c1[nH]c1ccc(F)cc12 [4-butoxy-8-fluoranyl-5H-pyrimido[5,4-b]indole] | 3.07 µM
23 | N#C/C(=C/c1ccc(N2CCCCCC2)o1)c1ccc(F)cc1 [MLS000051438] | > 10 µM
24 | CC(C)c1ccc2oc(-c3ccc(N)cc3)nc2c1 [4-(5-propan-2-yl-1,3-benzoxazol-2-yl)aniline] | 2.14 µM
25 | CCOc1ccc(-c2nc(-c3ccc(OC)cc3)no2)cc1OCC [5-(3,4-Diethoxy-phenyl)-3-(4-methoxy-phenyl)-[1,2,4]oxadiazole] | 0.732 µM
26 | O=C(Nc1nc(-c2ccc(Cl)s2)cs1)c1ccncc1 [MLS000098514] | > 10 µM
27 | Cc1cc(C)cc(-c2nc(-c3ccncc3)no2)c1 [5-(3,5-dimethylphenyl)-3-(4-pyridyl)-1,2,4-oxadiazole] | 1.44 µM
28 | N#Cc1ccc(NC(=O)Nc2ccc(Cl)cc2)cc1 [1-(4-chlorophenyl)-3-(4-cyanophenyl)urea] | 7.91 µM
29 | CC1=NC(=O)NC(c2ccccc2)C1C(=O)OCc1ccc2c(c1)OCO2 (stereo not drawn) [1,3-benzodioxol-5-ylmethyl 6-methyl-2-oxidanylidene-4-phenyl-3,4-dihydro-1H-pyrimidine-5-carboxylate] | 3.42 µM
30 | COCC(=O)Nc1cccc(C(F)(F)F)c1 [2-methoxy-N-[3-(trifluoromethyl)phenyl]acetamide] | > 95 µM
31 | Cc1ccc(C(C)C)c(OCc2nc(-c3nonc3N)no2)c1 [4-[5-[(5-methyl-2-propan-2-yl-phenoxy)methyl]-1,2,4-oxadiazol-3-yl]-1,2,5-oxadiazol-3-amine] | 1.12 µM
32 | Cc1cc(C(=O)CSc2nnc(-c3ccccc3)n2-c2ccccc2)c(C)n1-c1nnc[nH]1 | 6.13 µM
33 | C=CCN1/C(=N/c2cccnc2)SCC1(O)c1ccc(C)cc1 (stereo not drawn) [(2E)-3-allyl-4-(4-methylphenyl)-2-(pyridin-3-ylimino)-1,3-thiazolidin-4-ol] | 7.92 µM
34 | Cc1ccc(-c2nnc(SCc3ccccc3F)o2)cc1 [2-[(2-fluorobenzyl)thio]-5-(4-methylphenyl)-1,3,4-oxadiazole] | 1.14 µM
35 | CCOC(=O)C1CCN(c2ncnc3c2oc2ccc(Cl)cc23)CC1 [1-(8-chloro-4-benzofuro[3,2-d]pyrimidinyl)-4-piperidinecarboxylic acid ethyl ester] | > 95 µM
36 | CCOC(=O)c1ccc2c(c1)C(=O)N(C1CCCCC1)C2=O [2-cyclohexyl-1,3-diketo-isoindoline-5-carboxylic acid ethyl ester] | > 95 µM
37 | COC(=O)c1c(C)n(-c2ccc(OC)cc2)c2ccc(O)cc12 [5-hydroxy-1-(4-methoxyphenyl)-2-methyl-3-indolecarboxylic acid methyl ester] | 6.86 µM
38 | N#Cc1nc(-c2ccc(OCc3ccccc3)cc2)oc1NCc1cccnc1 [2-(4-benzoxyphenyl)-5-(3-pyridylmethylamino)oxazole-4-carbonitrile] | 9.76 µM
39 | Cc1cc(C(=O)CSc2nnnn2-c2ccc(O)cc2)c(C)n1Cc1ccc2c(c1)OCO2 [1-(2,5-dimethyl-1-piperonyl-pyrrol-3-yl)-2-[[1-(4-hydroxyphenyl)tetrazol-5-yl]thio]ethanone] | 6.14 µM
40 | COc1cccc2sc(Nc3nc(-c4ccccn4)cs3)nc12 [(4-methoxy-1,3-benzothiazol-2-yl)-[4-(2-pyridyl)thiazol-2-yl]amine] | 2.64 µM
41 | Clc1ccc(CSc2nnc(-c3ccncc3)o2)cc1 [2-[(4-chlorobenzyl)thio]-5-(4-pyridyl)-1,3,4-oxadiazole] | 3.58 µM
42 | c1ccc(C(Cc2nc(-c3cccnc3)no2)c2ccccc2)cc1 [5-(2,2-diphenylethyl)-3-(3-pyridinyl)-1,2,4-oxadiazole] | 2.66 µM

Same assay, conditions: inactive by the depositor's call

Row | Structure (SMILES) | EC50
43 | Cc1n[nH]c(C)c1N1C(=O)c2cccc3c(N4CCCCCC4)ccc(c23)C1=O | 12.5 µM
44 | O=C(C1CC1)N1CCc2cc(S(=O)(=O)NCC3COc4ccccc4O3)ccc21 (stereo not drawn) [1-(cyclopropanecarbonyl)-N-(2,3-dihydro-1,4-benzodioxin-3-ylmethyl)-2,3-dihydroindole-5-sulfonamide] | 13.8 µM
45 | Cc1ccc(Cl)cc1N1CCN(C(=O)COc2ccc(S(=O)(=O)NC(C)C)cc2)CC1 [4-[2-[4-(5-chloranyl-2-methyl-phenyl)piperazin-1-yl]-2-oxidanylidene-ethoxy]-N-propan-2-yl-benzenesulfonamide] | 13.1 µM
46 | CC1Cc2cc(-c3csc(NC(=O)Cc4cccs4)n3)ccc2N1S(C)(=O)=O (stereo not drawn) [MLS000027766] | 10.4 µM
47 | CCCCOc1ccc(S(=O)(=O)n2c(C)nc3ccccc32)cc1 [1-(4-butoxyphenyl)sulfonyl-2-methyl-benzimidazole] | 28.9 µM
48 | CCN(CC)S(=O)(=O)c1cc(C(=O)Nc2ccncc2)ccc1Cl [4-chloranyl-3-(diethylsulfamoyl)-N-pyridin-4-yl-benzamide] | 44.2 µM
49 | O=C(CSc1ncnc2c1oc1ccccc12)N1CCCc2ccccc21 [2-(4-benzofuro[3,2-d]pyrimidinylthio)-1-(3,4-dihydro-2H-quinolin-1-yl)ethanone] | 10.8 µM
50 | CCOC(=O)c1sc2nc(NC(=O)C(C)(C)C)sc2c1C [2-[(2,2-dimethyl-1-oxopropyl)amino]-6-methyl-5-thieno[2,3-d]thiazolecarboxylic acid ethyl ester] | 10.1 µM
51 | CCCOc1ccc(-c2nnc(-c3ccncc3)o2)cc1 [2-(4-propoxyphenyl)-5-(4-pyridyl)-1,3,4-oxadiazole] | 66.5 µM
52 | CN(CC1CCCO1)S(=O)(=O)c1ccc(C(=O)Nc2nc(-c3ccccn3)cs2)cc1 (stereo not drawn) [4-[methyl(2-oxolanylmethyl)sulfamoyl]-N-[4-(2-pyridinyl)-2-thiazolyl]benzamide] | 24 µM
53 | CCN(CC)S(=O)(=O)c1cccc(S(=O)(=O)c2cccc(S(=O)(=O)N(CC)CC)c2)c1 [3-[3-(diethylsulfamoyl)phenyl]sulfonyl-N,N-diethyl-benzenesulfonamide] | 23.4 µM
54 | Cc1ccc2[nH]c3c(NCc4ccco4)ncnc3c2c1 [MLS000040855] | 10.8 µM
55 | Cc1ccc(-c2nc(COC(=O)c3c(C)noc3C)cs2)cc1 [3,5-dimethyl-4-isoxazolecarboxylic acid [2-(4-methylphenyl)-4-thiazolyl]methyl ester] | 27.9 µM
56 | CC1=CC(C)(C)Nc2ccc(OC(=O)c3cccnc3)cc21 [(2,2,4-trimethyl-1H-quinolin-6-yl) pyridine-3-carboxylate] | 11 µM
57 | Cc1ccc(Cl)cc1N1CCN(C(=O)C2CCN(c3nnc(-n4cccc4)s3)CC2)CC1 [MLS000119702] | 43.3 µM
58 | COc1ccc2c(c1)CCc1c(C(=O)NC3CCCCC3)noc1-2 [MLS000087437] | 88.9 µM
